Test results as given in patent US9256062B2, “Electrowetting display apparatus and dye composition for electrowetting display” (FUJIFILM CORPORATION, priority 2012, dated 2016).

Tests used:
Type in all cases: physicochemical
[1] = Color tone of colored solution, visually observed; details: 0.001%-by-mass n-decane solution
Description: (§1) Azamethine colorants (the above-mentioned Exemplary Compounds 16, 17, 1, and 3 shown in Table 1 below) and n-decane that was an organic solvent were mixed, respectively, thereby preparing 4 kinds of 0.001%-by-mass n-decane solutions (colored compositions) colored with the azamethine colorants, respectively.
(§2) Separately, azo colorants (Comparative Compounds 1 to 3 mentioned below) and n-decane that was an organic solvent were mixed, respectively, thereby preparing 3 kinds of 0.001%-by-mass n-decane solutions (comparative colored compositions) colored with the azo colorants, respectively, as comparative colored compositions.
Each of the colored solutions (colored compositions) was visually observed and evaluated regarding the color tone thereof.

[2] = Relative dielectric constant of colorant; details: for Relative dielectric constant (1 kHz): extrapolated to colorant concentration 100% from diluted n-decane solutions, 1.0 V, 20° C., 40% RH; for relative dielectric constants (in words): summary of Table 1
Protocol: Herein, the relative dielectric constant of the colorant denotes a relative dielectric constant (calculated value) at a colorant concentration of 100%, as determined by extrapolating a straight line (calibration curve) indicating the relationship between the colorant concentration and the relative dielectric constant in a diluted colorant solution.
An equivalent parallel capacitance when a measurement frequency 1 kHz and a measurement voltage of 1.0 V are applied is measured in the state in which a diluted colorant solution is sandwiched between two electrodes facing each other with an electrode interval of 10 μm, and the relative dielectric constant of the diluted colorant solution is calculated by the following equation, based on the equivalent parallel capacitance thus obtained. Relative dielectric constant of diluted colorant solution=Equivalent parallel capacitance×Electrode interval/Electrode area/Dielectric constant of vacuum (∈0)
The relative dielectric constant of each of the colorants is determined by the following method.
That is, the relative dielectric constants of plural diluted colorant solutions at various concentrations, which had been prepared as described in (4-1) below, were measured, respectively, in the manner as described in (4-2) below. From the results obtained, a straight line (calibration curve) showing the relationship between the colorant concentrations and the relative dielectric constants were created. The relative dielectric constant (calculated value) at a colorant concentration of 100% was determined by extrapolating the straight line (calibration curve), and the obtained value was taken as the relative dielectric constant of the colorant.
The respective colorants and n-decane as an organic solvent are mixed, to thereby prepare n-decane solutions (diluted colorant solutions) at various concentrations, respectively.
A diluted colorant solution was sandwiched between ITO electrode-containing glass substrates that are flat plates in parallel facing each other at an electrode interval of 10 μm, and then an equivalent parallel capacitance was measured at the time of voltage application for measurement of 1.0 V at a frequency for measurement of 1 kHz under the conditions of 20° C. and 40% RH using a Model 2353LCR meter (trade name, manufactured by NF Corporation). Based on the equivalent parallel capacitance, the relative dielectric constant of the diluted colorant solution was determined in accordance with the following equation.
Relative dielectric constant of diluted colorant solution=Equivalent parallel capacitance×Interval of electrodes/Area of electrode/Dielectric constant of vacuum (∈0)

[3] = Maximum absorption wavelength, absorbance and absorption coefficient (visible light spectrophotometer); details: for Absorbance (abs) / Maximum absorption wavelength (λmax): 0.001%-by-mass n-decane solution; for Molar absorption coefficient (ε): at maximum absorption wavelength, calculated by Lambert-Beer law, n-decane solution; for molar extinction coefficients (ε) (in words): summary of Table 1
Description: as §1, §2
The maximum absorption wavelength (λmax) and the absorbance of the colored solutions (colored compositions) were measured using a visible light spectrophotometer (UV-1800 PC, trade name, manufactured by Shimadzu Corporation). Further, the molar extinction coefficient (∈) at a maximum absorption wavelength (λmax) of the colorants included in the colored solutions (the colored compositions) was calculated, based on a Lambert-Beer law.

[4] = Solubility in hexane; details: for Solubility in hexane [%]: n-hexane, 25° C. and 0.1 MPa, % by mass; for solubility in hexane (in words): summary of Table 1
Protocol: The solubility of each of the colorants in n-hexane as a non-polar solvent was measured as described below.
The respective colorants were each dissolved in n-hexane that had been heated to 50° C. to prepare a saturated solution, and then, the obtained saturated solution was left to stand for 1 hour under an environment of 25° C. and 0.1 MPa. The precipitated colorant was filtered, and the precipitation amount was measured to calculate the solubility (% by mass) of each of the colorants in n-hexane at 25° C. and 0.1 MPa.

Row | Color of solution [1] | Relative dielectric constant (1 kHz) [2] | relative dielectric constants (in words) [2] | Absorbance (abs) [3] | Maximum absorption wavelength (λmax) [3] | Molar absorption coefficient (ε) [3] | molar extinction coefficients (ε) (in words) [3] | Solubility in hexane [%] [4] | solubility in hexane (in words) [4] | Compound
1 | Red | 5.1 | low | 0.797 abs | 545 nm | 56900 L/mol/cm | high | ≥ 40 or % | high solubility | CCCCC(CC)c1n[nH]c2c(/N=C3/C(C#N)=C(C(=O)OC4C(C(C)(C)C)CC(C)CC4C(C)(C)C)c4nc(C(C)(C)C)nn43)c(C(C)(C)C)nn12 (stereo not drawn) [Exemplary Compound 3]
2 | Orange | 3.3 | low | 0.533 abs | 492 nm | 28600 L/mol/cm | high | 10% | high solubility | CCCCC(CC)c1nnc2n1N=C(C(C)(C)C)/C2=N/c1c(C(C)(C)C)nn2c(C(CC)CCCC)n[nH]c12 (stereo not drawn) [Exemplary Compound 1]
